The values below come from ChEMBL document CHEMBL1909046, “DrugMatrix in vitro pharmacology data”.

In one experiment the target is T1, D(4) dopamine receptor (Homo sapiens, UniProt P21917).
T1 sequence (P21917 whole entry): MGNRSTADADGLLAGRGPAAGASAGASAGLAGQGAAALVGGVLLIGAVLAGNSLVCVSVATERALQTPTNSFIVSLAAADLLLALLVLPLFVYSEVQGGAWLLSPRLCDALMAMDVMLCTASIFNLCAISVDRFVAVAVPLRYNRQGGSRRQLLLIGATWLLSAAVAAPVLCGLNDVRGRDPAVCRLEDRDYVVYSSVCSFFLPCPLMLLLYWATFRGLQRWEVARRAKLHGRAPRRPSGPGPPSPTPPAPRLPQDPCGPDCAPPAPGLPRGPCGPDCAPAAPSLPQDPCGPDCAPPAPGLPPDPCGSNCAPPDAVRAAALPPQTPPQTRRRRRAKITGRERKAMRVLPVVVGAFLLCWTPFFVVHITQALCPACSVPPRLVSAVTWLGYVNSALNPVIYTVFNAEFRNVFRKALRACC
The experiment is described as follows: DRUGMATRIX: Dopamine D4.2 radioligand binding (ligand: [3H] Spiperone). It counts as cell membranes, CHO-K1, Membrane. As to conditions: cho-k1; Not Active = under 50% inhibition at 10 µM.

The next experiment addresses D(3) dopamine receptor (Homo sapiens, UniProt P35462). Nature of the experiment: DRUGMATRIX: Dopamine D3 radioligand binding (ligand: [3H] Spiperone). It counts as cell membranes, CHO, Membrane. As to conditions: for Ki: read-out: Ki.
Experiment [1] addresses T2, C-X-C chemokine receptor type 2 (Homo sapiens, UniProt P25025).
T2 sequence (P25025 whole entry): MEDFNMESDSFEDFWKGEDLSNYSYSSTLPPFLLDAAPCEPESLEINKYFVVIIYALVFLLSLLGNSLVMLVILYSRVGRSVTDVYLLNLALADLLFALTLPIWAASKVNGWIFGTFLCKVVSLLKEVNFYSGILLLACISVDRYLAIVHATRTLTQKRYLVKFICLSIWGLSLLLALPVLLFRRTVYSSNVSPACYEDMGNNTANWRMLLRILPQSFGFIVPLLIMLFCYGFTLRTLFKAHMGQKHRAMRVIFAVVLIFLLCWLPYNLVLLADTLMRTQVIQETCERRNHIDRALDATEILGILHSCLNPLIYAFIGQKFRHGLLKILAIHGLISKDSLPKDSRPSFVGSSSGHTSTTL
It counts as cell membranes, Membrane. As to conditions: cho-k1.

Experiment [2] deals with Beta-3 adrenergic receptor (Homo sapiens, UniProt P13945). The experiment is described as follows: DRUGMATRIX: Adrenergic beta3 radioligand binding (ligand: [125I] Cyanopindolol). The settings on record: hek293; Not Active = under 50% inhibition at 10 µM. It counts as cell membranes, HEK293, Membrane.
Another experiment has as its target T3, B2 bradykinin receptor (Homo sapiens, UniProt P30411). Further: in other assays of this panel Not Active means under 50% inhibition at 10 µM.
T3 sequence (P30411 whole entry): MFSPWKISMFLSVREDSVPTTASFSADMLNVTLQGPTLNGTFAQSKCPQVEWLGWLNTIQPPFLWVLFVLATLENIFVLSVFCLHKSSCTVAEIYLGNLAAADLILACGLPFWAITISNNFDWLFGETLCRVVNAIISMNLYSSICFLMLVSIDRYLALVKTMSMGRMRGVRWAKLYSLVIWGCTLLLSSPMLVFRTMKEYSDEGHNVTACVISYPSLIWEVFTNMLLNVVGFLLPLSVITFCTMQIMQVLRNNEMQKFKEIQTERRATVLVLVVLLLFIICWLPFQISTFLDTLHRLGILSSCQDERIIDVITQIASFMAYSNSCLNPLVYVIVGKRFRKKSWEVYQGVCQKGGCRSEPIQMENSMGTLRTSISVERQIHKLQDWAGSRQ
It counts as cell membranes, Membrane. As to conditions: chem-1.

A further experiment deals with T4, Calcitonin receptor (Homo sapiens, UniProt P30988).
T4 sequence (P30988 whole entry): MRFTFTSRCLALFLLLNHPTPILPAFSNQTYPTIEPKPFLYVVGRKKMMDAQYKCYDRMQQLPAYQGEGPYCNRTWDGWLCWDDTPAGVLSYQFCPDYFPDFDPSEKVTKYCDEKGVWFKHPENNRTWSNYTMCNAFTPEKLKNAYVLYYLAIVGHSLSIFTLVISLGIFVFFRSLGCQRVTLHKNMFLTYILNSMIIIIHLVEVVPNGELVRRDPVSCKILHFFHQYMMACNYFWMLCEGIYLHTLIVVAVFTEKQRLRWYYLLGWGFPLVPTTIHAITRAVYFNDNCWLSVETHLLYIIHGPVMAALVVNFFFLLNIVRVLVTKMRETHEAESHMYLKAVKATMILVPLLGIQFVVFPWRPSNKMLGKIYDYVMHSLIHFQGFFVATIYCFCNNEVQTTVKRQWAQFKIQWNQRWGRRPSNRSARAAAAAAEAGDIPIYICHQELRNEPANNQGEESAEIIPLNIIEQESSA
It counts as cell membranes, Membrane. The settings on record: t47d.

Experiment [3] is described as follows: DRUGMATRIX: Glutamate, NMDA, Phencyclidine radioligand binding (ligand: [3H] TCP). It counts as cell membranes, Rattus norvegicus, Wistar, Cerebral cortex, Membrane. The settings on record: Not Active = under 50% inhibition at 10 µM.

Molecules are shown by their SMILES.

Sequence of D(3) dopamine receptor (P35462 whole entry): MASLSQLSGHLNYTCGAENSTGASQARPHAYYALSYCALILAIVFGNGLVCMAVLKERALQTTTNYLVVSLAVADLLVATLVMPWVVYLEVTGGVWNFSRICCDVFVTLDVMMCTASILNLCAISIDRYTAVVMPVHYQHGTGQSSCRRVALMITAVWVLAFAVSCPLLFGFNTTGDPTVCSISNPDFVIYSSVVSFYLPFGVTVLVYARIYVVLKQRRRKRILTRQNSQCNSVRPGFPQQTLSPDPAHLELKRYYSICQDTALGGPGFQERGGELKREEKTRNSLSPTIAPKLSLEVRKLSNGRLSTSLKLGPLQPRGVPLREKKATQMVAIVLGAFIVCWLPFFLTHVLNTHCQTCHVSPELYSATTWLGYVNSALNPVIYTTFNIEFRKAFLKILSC
Sequence of Beta-3 adrenergic receptor (P13945 whole entry): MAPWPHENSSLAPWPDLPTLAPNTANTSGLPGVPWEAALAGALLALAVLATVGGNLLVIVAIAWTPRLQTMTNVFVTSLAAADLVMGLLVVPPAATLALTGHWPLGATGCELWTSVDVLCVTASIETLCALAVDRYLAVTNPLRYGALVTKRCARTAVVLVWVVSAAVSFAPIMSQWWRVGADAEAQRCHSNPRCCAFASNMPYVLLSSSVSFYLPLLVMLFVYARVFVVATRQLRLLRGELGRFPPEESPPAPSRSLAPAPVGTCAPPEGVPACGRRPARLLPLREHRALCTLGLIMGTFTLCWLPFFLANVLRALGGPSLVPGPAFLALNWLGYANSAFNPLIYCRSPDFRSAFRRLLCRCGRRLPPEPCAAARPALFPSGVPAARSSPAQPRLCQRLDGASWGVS

Regarding `CN1CCC(=C2c3ccccc3CC(=O)c3sccc32)CC1` [KETOTIFEN], the 50% inhibitory concentration (IC50) entry at D(4) dopamine receptor is “Not Active”; at D(3) dopamine receptor (read-out: IC50) it was 1960 nM; in experiment [1], “Not Active”; in experiment [2], “Not Active”; on B2 bradykinin receptor, “Not Active”; on Calcitonin receptor, “Not Active”. For the same molecule, the IC50 result in experiment [3] was “Not Active”. For the same molecule, the inhibition constant (Ki) on D(3) dopamine receptor was 667 nM; in experiment [3], “Not Active”.
Turning to `N[C@@H](Cn1ccc(=O)c(O)c1)C(=O)O` [L-MIMOSINE], the IC50 entry (at D(4) dopamine receptor; at D(3) dopamine receptor (cho); in experiment [1]; in experiment [2]; against B2 bradykinin receptor; at Calcitonin receptor) was “Not Active” each time. Also, the IC50 result in experiment [3] is on record as “Not Active”. For the same molecule, the Ki entry in experiment [3] is “Not Active”.
For the molecule `C[N+](C)(C)C[C@H](O)CC(=O)[O-]` [LEVOCARNITINE], the IC50 result (on D(4) dopamine receptor; on D(3) dopamine receptor (cho); in experiment [1]; in experiment [2]; on B2 bradykinin receptor; on Calcitonin receptor) was “Not Active” each time. Also, in experiment [3], the IC50 entry is listed as “Not Active”. In experiment [3], the Ki result is “Not Active”.
On to `C[C@H]1COc2c(N3CCN(C)CC3)c(F)cc3c(=O)c(C(=O)O)cn1c23.C[C@H]1COc2c(N3CCN(C)CC3)c(F)cc3c(=O)c(C(=O)O)cn1c23.O` [LEVOFLOXACIN], for which the IC50 result (on D(4) dopamine receptor; at D(3) dopamine receptor (cho); in experiment [1]; in experiment [2]; against B2 bradykinin receptor; on Calcitonin receptor) was “Not Active” throughout. Also, the 50% inhibitory concentration (IC50) entry in experiment [3] is given as “Not Active”. Besides, the Ki result in experiment [3] was “Not Active”.
Take `CCn1cc(C(=O)O)c(=O)c2cc(F)c(N3CCNC(C)C3)c(F)c21` (stereo not drawn) [LOMEFLOXACIN]: the IC50 entry (on D(4) dopamine receptor; on D(3) dopamine receptor (cho); in experiment [1]; in experiment [2]; against B2 bradykinin receptor; on Calcitonin receptor) was “Not Active” in each case. Also, the IC50 entry in experiment [3] was “Not Active”. Further, the Ki result in experiment [3] is recorded as “Not Active”.
With `CN1CCCC(CN2c3ccccc3Sc3ccccc32)C1` (stereo not drawn) [MEPAZINE], the IC50 result on D(4) dopamine receptor was “Not Active”; on D(3) dopamine receptor (read-out: IC50), 2010 nM; in experiment [1], “Not Active”; in experiment [2], “Not Active”; on B2 bradykinin receptor it was “Not Active”; on Calcitonin receptor it was “Not Active”. In experiment [3], the IC50 entry is recorded as “Not Active”. For the same molecule, the values for the Ki (at D(3) dopamine receptor; in experiment [3]) were 681 nM and “Not Active”, respectively.
Regarding `Cc1cccc(C)c1NC(=O)C1CCCCN1C` (stereo not drawn) [MEPIVACAINE], the IC50 entry (on D(4) dopamine receptor; at D(3) dopamine receptor (cho); in experiment [1]; in experiment [2]; against B2 bradykinin receptor; at Calcitonin receptor) was “Not Active” throughout. The IC50 result in experiment [3] was “Not Active”. In addition, the Ki entry in experiment [3] is recorded as “Not Active”.
`CN(C)C(=N)NC(=N)N` [METFORMIN]: the IC50 entry (at D(4) dopamine receptor; on D(3) dopamine receptor (cho); in experiment [1]; in experiment [2]; against B2 bradykinin receptor; on Calcitonin receptor) was “Not Active” each time. Moreover, in experiment [3], the IC50 result was “Not Active”. Besides, in experiment [3], the Ki result was “Not Active”.
On to `CC(C)(C)NCC(O)COc1cccc2c1CC(O)C(O)C2` (stereo not drawn) [NADOLOL], for which the IC50 result (on D(4) dopamine receptor; at D(3) dopamine receptor (cho); in experiment [1]; in experiment [2]; on B2 bradykinin receptor; on Calcitonin receptor) was “Not Active” throughout. Moreover, the IC50 entry in experiment [3] is “Not Active”. The Ki entry in experiment [3] is listed as “Not Active”.
For the molecule `C[C@]12CC[C@H]3[C@@H](CCC4=CC(=O)CC[C@@H]43)[C@@H]1CC[C@@H]2O` [NANDROLONE], the IC50 result (on D(4) dopamine receptor; at D(3) dopamine receptor (cho); in experiment [1]; in experiment [2]; on B2 bradykinin receptor; on Calcitonin receptor) was “Not Active” each time. Moreover, in experiment [3], the IC50 result is on record as “Not Active”. The Ki entry in experiment [3] was “Not Active”.
Regarding `C[C@@H]1C/C=C/C=C/C=C/C=C/[C@H](O[C@@H]2O[C@H](C)[C@@H](O)[C@H](N)[C@@H]2O)C[C@@H]2O[C@](O)(C[C@@H](O)C[C@H]3O[C@@H]3/C=C/C(=O)O1)C[C@H](O)[C@H]2C(=O)O` [NATAMYCIN], the IC50 result (at D(4) dopamine receptor; on D(3) dopamine receptor (cho); in experiment [1]; in experiment [2]; on B2 bradykinin receptor; on Calcitonin receptor) was “Not Active” each time. The IC50 entry in experiment [3] is “Not Active”. In addition, in experiment [3], the Ki entry is “Not Active”.
With `CN(C)C(=O)Oc1cccc([N+](C)(C)C)c1.[Br-]` [NEOSTIGMINE BROMIDE], the IC50 entry (at D(4) dopamine receptor; at D(3) dopamine receptor (cho); in experiment [1]; in experiment [2]; at B2 bradykinin receptor; at Calcitonin receptor) was “Not Active” throughout. Moreover, in experiment [3], the IC50 entry is “Not Active”. The Ki entry in experiment [3] was “Not Active”.
Regarding `NC(=O)c1cccnc1` [NIACINAMIDE], the IC50 entry (on D(4) dopamine receptor; at D(3) dopamine receptor (cho); in experiment [1]; in experiment [2]; at B2 bradykinin receptor; at Calcitonin receptor) was “Not Active” each time. For the same molecule, the IC50 entry in experiment [3] was “Not Active”. In experiment [3], the Ki entry is listed as “Not Active”.
Consider `CS(=O)(=O)Nc1ccc([N+](=O)[O-])cc1Oc1ccccc1` [NIMESULIDE], for which the IC50 result (on D(4) dopamine receptor; at D(3) dopamine receptor (cho); in experiment [1]; in experiment [2]; at B2 bradykinin receptor; on Calcitonin receptor) was “Not Active” in each case. Also, in experiment [3], the IC50 result is given as “Not Active”. For the same molecule, the Ki result in experiment [3] is “Not Active”.
Turning to `CN1C(=O)CN=C(c2ccccc2)c2cc([N+](=O)[O-])ccc21` [NIMETAZEPAM], the IC50 result (at D(4) dopamine receptor; at D(3) dopamine receptor (cho); in experiment [1]; in experiment [2]; against B2 bradykinin receptor; on Calcitonin receptor) was “Not Active” throughout. Besides, the IC50 result in experiment [3] is recorded as “Not Active”. Also, the Ki entry in experiment [3] was “Not Active”.
For `COc1ccc2c(c1OC)C(=O)O[C@@H]2[C@H]1c2c(cc3c(c2OC)OCO3)CCN1C` [NOSCAPINE], the IC50 result (on D(4) dopamine receptor; on D(3) dopamine receptor (cho); in experiment [1]; in experiment [2]; against B2 bradykinin receptor; at Calcitonin receptor) was “Not Active” throughout. Besides, the IC50 entry in experiment [3] is on record as “Not Active”. In addition, in experiment [3], the Ki entry is “Not Active”.
Regarding `C[C@@H]1O[C@@H](O[C@H]2C[C@@H](O)[C@]3(CO)[C@H]4[C@H](O)C[C@]5(C)[C@@H](C6=CC(=O)OC6)CC[C@]5(O)[C@@H]4CC[C@]3(O)C2)[C@H](O)[C@H](O)[C@H]1O` [OUABAIN], the IC50 result (at D(4) dopamine receptor; at D(3) dopamine receptor (cho); in experiment [1]; in experiment [2]; against B2 bradykinin receptor; on Calcitonin receptor) was “Not Active” each time. In addition, the IC50 entry in experiment [3] is “Not Active”. Also, the Ki entry in experiment [3] is recorded as “Not Active”.

The IC50 is the concentration that gives 50% inhibition. What is called Ki is the equilibrium dissociation constant of an inhibitor or competing ligand from its target.
